Experimental data as given in patent US20130295115A1, “COMPOSITIONS AND METHODS FOR TREATING […]” (priority 2010, published 2013).

How the values were obtained:
Sindbis virus [1] = type: cell-based
[2] = target: human Natural Resistance-Associated Macrophage Protein 2 (hNRAMP2) (human) (UniProt P49281); assay: cell-based or functional assay
[3] = system: Vesicular Stomatitis Virus; type: cell-based
West Nile virus = type: cell-based
Sindbis virus [4] = type: cell-based; remark: listed apart in the source
hNRAMP2 = assay: NRAMP2 expression (RT-PCR) in U2OS cells with iron; type: cell-based, human
Procedure: Cells were treated with 160 μM Ammonium Iron(III) Citrate for three days prior to and throughout the infection.
Total RNA was purified using Trizol and used for reverse transcription with random priming and MLV-RT (Invitrogen) followed by PCR using the indicated primers.

Ross River virus = type: cell-based; conditions: iron treatment (not shown)
[5] = system: Venezuelan Equine Encephalitis virus (VEE); type: cell-based
Sindbis virus / NRAMP2 = Sindbis virus / NRAMP2 (Homo sapiens, UniProt P49281); type: cell-based
Sindbis virus / NRAMP2, sequence (P49281 whole entry, looked up): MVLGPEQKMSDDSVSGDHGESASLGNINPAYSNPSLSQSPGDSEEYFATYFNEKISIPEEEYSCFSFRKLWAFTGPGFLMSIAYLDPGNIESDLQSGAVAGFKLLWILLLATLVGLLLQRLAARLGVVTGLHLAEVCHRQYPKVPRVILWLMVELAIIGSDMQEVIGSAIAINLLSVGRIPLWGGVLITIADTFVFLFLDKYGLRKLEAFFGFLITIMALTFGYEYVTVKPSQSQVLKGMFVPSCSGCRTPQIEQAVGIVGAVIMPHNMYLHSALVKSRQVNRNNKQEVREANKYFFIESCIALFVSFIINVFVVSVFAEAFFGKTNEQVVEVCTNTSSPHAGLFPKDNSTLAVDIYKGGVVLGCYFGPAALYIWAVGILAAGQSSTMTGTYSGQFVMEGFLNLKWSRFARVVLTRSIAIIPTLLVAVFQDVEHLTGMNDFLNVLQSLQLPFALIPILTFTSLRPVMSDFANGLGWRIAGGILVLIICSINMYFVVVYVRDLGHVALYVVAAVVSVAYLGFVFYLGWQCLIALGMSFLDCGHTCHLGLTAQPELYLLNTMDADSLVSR

human Natural Resistance-Associated Macrophage Protein 2 (hNRAMP2) (human), sequence (P49281 whole entry): as the sequence (P49281 whole entry, looked up) above

For `Cl.N` [ammonium chloride], which Sindbis infection (Sindbis virus [1]) is on record?
Its Sindbis infection is “inhibited infection”.

Which percentage of infected cells on NRAMP2 over-expression [2] does the source give for “Sindbis virus (biotinylated infectious virus particles)” here?
Its percentage of infected cells on NRAMP2 over-expression is 2 fold.

For Ammonium Iron(III) Citrate, which VSV infection [3] is on record?
Its VSV infection is “no effect”.

What about the “West Nile virus infection” value (West Nile virus) of the same molecule?
The value was “no effect”.

What about the “reduction in virus binding to iron-treated cells compared to controls” value (Sindbis virus [4]) of the same molecule?
Its value is roughly 17 fold.

And the NRAMP2 expression (hNRAMP2; NRAMP2 over-expressing cells treated with iron (FIG. 7A))?
Its NRAMP2 expression is “decrease”.

What about the NRAMP2 expression (hNRAMP2; U2OS cells, high iron (FIG. 7A)) of the same molecule?
Its NRAMP2 expression is “decreased”.

And the “Ross River virus infection” value (Ross River virus)?
Its value is “insensitive”.

What about the VEE infection [5] of the same molecule?
The VEE infection was “sensitive”.

What about the “NRAMP2 co-precipitation with Sindbis virus” value (Sindbis virus / NRAMP2) of the same molecule?
The value was “lost”.

And the “Sindbis virus binding (streptavidin precipitation, immunoblot)” value (Sindbis virus / NRAMP2)?
The value was “attenuated”.
